Measurements taken from paper PMC10200060, “Inhibition of DAMP actions in the tumoral microenvironment using lactoferrin-glycyrrhizin conjugate for glioblastoma therapy” (Biomaterials Research, 2023).

Experiments:
HUVEC = HUVEC co-cultured with U87MG: CCK-8 at basal chamber; type: cell-based, human; conditions: HUVEC/U87MG Transwell co-culture, 100 μM GL equivalent, 24 h
Experimental: To evaluate the inhibitory effect of Lf-GL on neovascularization in the tumor microenvironment in vitro, U87MG cells were seeded in the Transwell® insert chambers that were 6.5 mm in diameter and had 0.4 μm pore sizes (seeding density: 2.5 × 10^4 cells per well, Corning). HUVECs were seeded in the Transwell basal chamber (seeding density: 5.0 × 10^4 cells per well). GL, Lf, or Lf-GL (100 × 10^–6 M of GL equivalent concentration) were added to the insert chamber, and cells were incubated for 24 h. CCK-8 assay and HMGB1 ELISA were conducted at the basal chamber.

[1] = system: U87MG human glioma cell line; experiment: Cell viability test (CCK-8) in U87MG; type: cell-based; conditions: 50 μM GL equivalent, after 48 h treatment
Experimental: Cell viability was determined using a cell counting kit-8 (CCK-8). U87MG and HUVECs (seeding density: 0.75 × 10^4 cells per well) in 96-well culture plates were treated with GL, Lf, or Lf-GL (25 to 200 × 10^–6 M of GL equivalent concentration) and were incubated for different periods of time (24, 48, and 72 h). After washing with PBS, they were treated with a cell culture medium containing a CCK-8 assay kit (Abbkine) and were incubated at 37 °C and 5% CO2 for 2 h. Then, absorbance was measured at 450 nm in a micro-plate reader (VLBL00D0, Thermo Fisher Scientific). Results were quantified using Sigma Plot (Systat Software, USA). To determine the effect of extracellular HMGB1 in GBM and endothelial cell proliferation, U87MG and HUVECs were seeded in 96-well culture plates (seeding density: 0.75 × 10^4 cells per well) and GL, Lf, or Lf-GL (50 × 10^–6 M GL equivalent concentration) were added to cells with or without HMGB1 protein (U87MG: 0.1 μg mL^−1, and HUVEC: 1 μg mL^−1). Cells were incubated for different periods of time (24, 48, and 72 h).

[2] = target: T1, human recombinant HMGB1 protein (Homo sapiens, UniProt P09429); experiment: SPR binding affinity against HMGB1; conditions: SPR, HMGB1 immobilized
T1 construct: purchased Abcam
T1 sequence (P09429 1-215): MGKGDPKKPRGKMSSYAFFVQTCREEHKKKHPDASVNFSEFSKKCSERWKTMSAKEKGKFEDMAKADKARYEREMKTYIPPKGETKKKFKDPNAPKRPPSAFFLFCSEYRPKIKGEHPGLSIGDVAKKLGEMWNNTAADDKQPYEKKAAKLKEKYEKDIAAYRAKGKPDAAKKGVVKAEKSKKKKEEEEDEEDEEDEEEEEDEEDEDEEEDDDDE
Experimental: To confirm the binding affinity of Lf-GL to HMGB1, Surface Plasmon Resonance (SPR) was conducted at WoojungBSC (Korea). The Reichert SR7500DC system (Reichert technologies, NA, USA) and Scrubber2 software (Biologic software, FRA) were used, and a CMDH chip (Cat #: 13,206,066, Reichert technologies) was used for immobilization of the human recombinant HMGB1 protein (Abcam). HMGB1 protein was used as a ligand, and the analytes were HMGB1 antibody (Abcam), GL, Lf and Lf-GL conjugate. The immobilization buffer was S.A. (10 × 10^–3 M, pH 4.5), and the running buffer was PBS (pH 7.4). The flow rate of the analyte was 30 μL min^−1. The association and dissociation time were 3 min each, and measurements were conducted at room temperature. Results are expressed in response units (RU) over time.
Fig. S5. Binding affinity against HMGB1. Surface Plasmon Resonance (SPR) was conducted at WoojungBSC (Korea). The Reichert SR7500DC system (Reichert technologies, NA, USA) and Scrubber2 software(Biologic software, FRA) were used and the CMDH chip (Cat #: 13206066, Reichert technologies) was used for immobilization of the human recombinant HMGB1 protein (Abcam). HMGB1 protein was used as ligand and analytes were HMGB1 antibody (Abcam), GL, Lf and Lf-GL conjugate. Immobilization buffer was 10 mM S.A. (pH 4.5) and running buffer was 1× PBS. The flow rate of the analyte was 30 μL min^-1. The association and dissociation time were 3 min each and conducted at room temperature. Results are expressed in response units (RU) over time.

[3] = GBM targeted-GL by HPLC in brain homogenate; type: in vivo, orthotopic GBM model mice; conditions: Balb/c nude, mouse, brain homogenate, iv; orthotopic GBM mice, i.v. GL equivalent 50 mg kg^−1, 10 min after injection; read-out: GL concentration detected in brain homogenate
Experimental: Orthotopic GBM mice model mice were used for quantification of GBM targeting efficacy. The brain tissue was homogenized in deionized water at a 33.3 w/v (%) using a FastPrep-24 5G (MP biomedical, South Korea). The GL were added to pooled brain homogenate to obtain seven-point calibration curves with a range of 10–1000 ng mL^−1. Then, homogenate (50 μL) was mixed with methanol (100 μL). […] Thereafter, supernatants (100 μL) were mixed with mobile phase solution (900 μL), then filtered with a 0.22 μm syringe filter. Samples were collected in a 2 mL HPLC vial (Screw top vial, Waters, USA) and analyzed by HPLC at 254 nm. […] Mice were sacrificed and brain tissues were collected 10 min after the GL and Lf-GL injection. The samples for quantification were also conducted using the same process as GL standard preparation.

[4] = In vivo pharmacokinetics study
[5] = Balb/c, mouse, plasma, iv, 50 mg/kg

CC1(C)[C@@H](O[C@H]2O[C@H](C(=O)O)[C@@H](O)[C@H](O)[C@H]2O[C@@H]2O[C@H](C(=O)O)[C@@H](O)[C@H](O)[C@H]2O)CC[C@]2(C)[C@H]3C(=O)C=C4[C@@H]5C[C@@](C)(C(=O)O)CC[C@]5(C)CC[C@@]4(C)[C@]3(C)CC[C@@H]12 [GL, Glycyrrhizin]
Reduction of endothelial cell proliferation (HUVEC): 10.7 ± 2.9% | Number of cells, % of the original count [1]: 93.4 ± 4.8% | Kd, dissociation rate constant ([2]; PBS pH 7.4, room temperature): 0.00283 ± 3e-05 s⁻¹ | kon ([2]; PBS pH 7.4, room temperature, read-out: Ka, association rate constant): 5.3 ± 0.1 M⁻¹ s⁻¹ | Kd ([2]; read-out: KD, equilibrium dissociation constant (KD = Kd Ka^−1)): 540 ± 20 µM | concentration at 10 min [3]: 9.8 ± 2.3 µg/mL | AUC(0-t) [4, 5]: 102 µg·h/mL | Cmax [4, 5]: 254 ± 117 µg/mL | MRT [4, 5]: 4.6 min | Tmax [4, 5]: 1 min | half-life ([4]; Balb/c, mouse, plasma, iv, 50 mg/kg, T1/2, elimination half-life, mice, GL equivalent 50 mg kg^−1, plasma): ~3.8 min | Time after administration until cleared from / remaining in circulation ([4]; mice, i.v., GL equivalent 50 mg kg^−1): 150 min
